Columns and labels:
[1] = tested on: catchweed bedstraw; experiment: Test F pre-/postemergence herbicide test; type: in vivo, Gallium aparine
From the text: Seeds of plant species selected from annual blugrass (Poa annua L.), blackgrass (Alopecurus myosuroides Huds.), catchweed bedstraw (Gallium aparine L.), common chickweed (Stellaria media (L.) Vill./Cyr.), downy bromegrass (Bromus tectorum L.), green foxtail (Setaria viridis (L.) Beauv.), Italian ryegrass (Lolium multiflorum Lam.), kochia (Kochia scoparia (L.). Schrad.), lambsquarters (Chenopodium album L.), littleseed canarygrass (Phalaris minor Retz.), pigweed (Amaranthus retroflexus L.), Russian thistle (Salsola kali L. ssp. Ruthenica (Iljin) Soo), wild buckwheat (Polygonum convolvulus L.), wild mustard (Sinapis arvensis L.), wild oat (Avena fatua L.), windgrass (Apera spica-venti (L.) Beauv.), winter barley (Hordeum vulgare L.), and wheat (Triticum aestivum L.) were planted and treated preemergence with test chemicals formulated in a non-phytotoxic solvent mixture which included a surfactant.
At the same time, plants selected from these crop and weed species were treated with postemergence applications of some of the test chemicals formulated in the same manner. Plants ranged in height from 2 to 18 cm (1- to 4-leaf stage) for postemergence treatments. Treated plants and controls were maintained in a greenhouse for 12 to 14 days, after which time all species were compared to controls and visually evaluated. Plant response ratings, summarized in Table F, are based on a scale of 0 to 100 where 0 is no effect and 100 is complete control. A dash (-) response means no test result.

[2] = tested on: barley cv. Boone; experiment: Test I safening of Compound 6 by Harmony Extra Herbicide, pre-/postemergence; type: in vivo, Hordeum vulgare
Description: This test evaluated the safening of Compound 6 on barley (Hordeum vulgare L.) cv. ‘Boone’ and wheat (Triticum aestivum L.) cv. ‘Recital’ by Harmony® Extra Herbicide, which comprises 50 wt % thifensulfuron-methyl and 25 wt % tribenuron-methyl. Barley and wheat seeds were planted in pots containing a pasteurized blend of Matapeake soil and sand. For postemergence testing the plants were grown 10 days so the barley seedlings were at the 2-leaf stage and the wheat seedlings were at the 2-3-leaf stage at time of treatment. Preemergence treatments were applied the day after the seeds were planted. Treatments were applied by spraying Compound 6 and/or […] in a non-phytotoxic solvent mixture, using flat fan nozzle and a spray volume of 280 L/ha. The treatments were triply replicated and the results subsequently averaged. The pots were placed on a greenhouse bench using a complete randomized block design except for the first replicate, which was unrandomized. The plants were grown in the greenhouse and watered as needed with a dilute nutrient solution containing 200 ppm of N. Illumination was daylight supplemented by artificial sources to maintain a photoperiod of 14 hours. The temperature was maintained at 23±2° C. during the day and 17±2° C. at night. The effects of the treatments were rated 25 days after preemergence treatment and 15 days after postemergence treatment. The plant response was visually rated in comparison to untreated controls using a scale of 0 to 100, with 0 representing no effect and 100 representing complete plant death.
Colby's Equation was used to calculate the expected additive herbicidal effect of the mixtures of Compound 6 with Harmony® Extra (i.e. a 2:1 mixture by weight of thifensulfuron-methyl and tribenuron-methyl). Colby's Equation (Colby, S. R. “Calculating Synergistic and Antagonistic Responses of Herbicide Combinations,” Weeds, 15(1), pp 20-22 (1967)) calculates the expected additive effect of herbicidal mixtures, and for two active ingredients is of the form: Pa+b=Pa+Pb−(PaPb/100) wherein • Pa+b is the percentage effect of the mixture expected from additive contribution of the individual components, • Pa is the observed percentage effect of the first active ingredient at the same use rate as in the mixture, and • Pb is the observed percentage effect of the second active ingredient at the same use rate as in the mixture.
The results and additive effects expected from Colby's Equation for the preemergence test are listed in Table I1, and the results and additive effects expected from Colby's Equation for the postemergence test are listed in Table I2.

[3] = tested on: blackgrass (ALOMY); experiment: Test J Compounds 2 and 6 alone and in combination with other herbicides, foliage spray; type: in vivo, Alopecurus myosuroides; parameters: key: 0 = no effect, 100 = complete control; details: applied alone
From the text: (§1) Colby's Equation was used to calculate the expected additive herbicidal effect of the mixtures of Compound 6 with Harmony® Extra (i.e. a 2:1 mixture by weight of thifensulfuron-methyl and tribenuron-methyl). […]
(§2) Seeds of test plants consisting of barnyardgrass (ECHCG; Echinochloa crus-galli (L.) Beauv.), blackgrass (ALOMY; Alopecurus myosuroides Huds.), Surinam grass (BRADC; Urochloa decumbens (Staph) R. D. Webster, previously named Brachiaria decumbens Stapf), cocklebur (XANST, Xanthium strumarium L.), corn (ZEAMD, Zea mays L. cv. ‘Pioneer 33G26’), large crabgrass (DIGSA, Digitaria sanguinalis (L.) Scop.), giant foxtail (SETFA, Setaria faberi Herrm.), lambsquarters (CHEAL, Chenopodium album L.), morningglory (IPOCO, Ipomoea coccinea L.), pigweed (AMARE, Amaranthus retroflexus L.), velvetleaf (ABUTH, Abutilon theophrasti Medik.) wheat (TRZAS, Triticum aestivum L. cv. ‘Recital’) and wild oat (AVEFA, Avena fatua L.) were planted in Redi-Earth® planting medium (Scotts Company, 14111 Scottslawn Road, Marysville, Ohio 43041) comprising spaghnum peat moss and vermiculite. […] Also listed in Table J are the expected effects for the mixtures calculated using Colby's Equation.

[4] = tested on: wild oat (AVEFA); experiment: as above; type: in vivo, Avena fatua; parameters: key: 0 = no effect, 100 = complete control; details: applied alone
From the text: as §1, §2

## CCn1nc(C(C)(C)C)cc1C(=O)Nc1cc(C(=O)OC(C)C)c(F)cc1F [Compound 248]
[1]; Postemergence, 31 g ai/ha
  Plant response rating (0-100), Galium: 50
[1]; Postemergence, 62 g ai/ha
  Plant response rating (0-100), Galium: 50
[1]; Postemergence, 125 g ai/ha
  Plant response rating (0-100), Galium: 60
[1]; Postemergence, 250 g ai/ha
  Plant response rating (0-100), Galium: 60
[1]; Preemergence, 31 g ai/ha
  Plant response rating (0-100), Galium: 30
[1]; Preemergence, 62 g ai/ha
  Plant response rating (0-100), Galium: 50
[1]; Preemergence, 125 g ai/ha
  Plant response rating (0-100), Galium: 50
[1]; Preemergence, 250 g ai/ha
  Plant response rating (0-100), Galium: 60

## CCn1nc(C(C)(C)C)cc1C(=O)Nc1cc(C(=O)N(C)C)ccc1F [Compound 6, N-[5-[(dimethylamino)carbonyl]-2-fluorophenyl]-3-(1,1-dimethylethyl)-1-ethyl-1H-pyrazole-5-carboxamide]
[2]; postemergence, Compound 6 16, thifensulfuron-methyl 0, tribenuron-methyl 0 g a.i./ha
  Barley Observed effect: 47
[2]; postemergence, Compound 6 31, thifensulfuron-methyl 0, tribenuron-methyl 0 g a.i./ha
  Barley Observed effect: 73
[2]; preemergence, Compound 6 16, thifensulfuron-methyl 0, tribenuron-methyl 0 g a.i./ha
  Barley Observed effect: 35
[2]; preemergence, Compound 6 31, thifensulfuron-methyl 0, tribenuron-methyl 0 g a.i./ha
  Barley Observed effect: 68
[3]; 62 g a.i./ha
  ALOMY Obsd.: 18
[3]; 125 g a.i./ha
  ALOMY Obsd.: 33
[4]; 62 g a.i./ha
  AVEFA Obsd.: 10
[4]; 125 g a.i./ha
  AVEFA Obsd.: 25

— patent US20060069132A1, “Azolecarboxamide herbicides” (priority 2004, published 2006)
